In US20120308554A1, “VEGF-D/VEGFR2/3-MEDIATED REGULATION OF DENDRITES” (UNIVERSITAT HEIDELBERG, priority 2011, published 2012):

Experiments:
[1] = test system: VEGFC; assay: qRT-PCR analysis of VEGFC expression in hippocampal neurons; format: cell-based, mice; details: hippocampal neurons infected with rAAV
Experimental: (§1) Total RNA was isolated at DIV10 to DIV13 from hippocampal primary neuron cultures or isolated brain tissues with Rneasy Mini Kit (Qiagen, Hilden, Germany) including an optional Dnase I treatment at room temperature for 15 min according to manufacturer's instructions (Qiagen). 1.2 μg of extracted RNA was reverse transcribed into first strand cDNA using High Capacity cDNA Reverse Transcription kit (Applied Biosystems, Foster City, Calif.).
(§2) Quantitative reverse transcriptase PCR (qRT-PCR) was done on an ABI7300 thermal cycler using Universal qRT-PCR master mix with TaqMan Gene Expression Assays for the indicated genes (Applied Biosystems). The following TaqMan Gene Expression Assays were used in this study: Gusb (Mm00446953_m1), cFos (Mm00487425_m1), VEGFD (Mm00438965_m1), VEGFC (Mm01202432_m1), VEGF (Mm01281449_m1), VEGFR3 (Mm01292618_m1), beta-actin (Mm00607939_s1), beta-2 microglobulin (Mm00437762_m1), CBP (Mm01342435_m1), p38 MAPK alpha (Mm00442497_m1), p38 MAPK beta (Mm00440955_m1). Expression of target genes was normalized against the expression of Gusb as endogenous control gene. Data were derived from at least 5 independent experiments.

[2] = test system: C57BL/6 mice; assay: Contextual fear conditioning; format: in vivo; details: versus rAAV-shSCR
Experimental: (§3) rAAVs were delivered by stereotaxic injection into the right dorsal hippocampus of 2 months old male C57BL/6 mice. For the Golgi staining-based morphometric analysis, viral particles were unilaterally injected over a period of 20 min at the following coordinates relative to Bregma: anteroposterior, −2.1 mm; mediolateral, −1.4 mm; dorsoventral, −1.4 to −1.8 mm from the skull surface. For behavior experiments mice were injected bilaterally.
(§4) The behavioral experiments started three weeks after stereotaxic delivery of rAAVs. Mice were habituated to the experimental room and handled once a day for three consecutive days before testing started. Two different sets of mice were used for Morris water maze and contextual fear conditioning experiments. At the end of the experiments, virus infection was assessed.
On the training day, mice were placed into the conditioning chamber (23×23×35 cm; TSE, Bad Homburg, Germany) and received a 2 second, 0.5 mA scrambled foot shock 148 seconds after placement into the chamber. Mice were removed from the chamber 30 seconds after the shock. During testing, mice received one 5 minute exposure to the same context in the absence of foot shock 24 hours after conditioning. Freezing, defined as absence of movement except for respiration, was scored continuously during training and testing sessions.

[3] = test system: C57BL/6 mice; assay: Morris water maze; format: in vivo
Experimental: as §3, §4
Mice were first tested in the hidden-platform version and next in the visible-platform version of the water maze. The water maze consisted of a circular pool (120 cm diameter) filled with opaque water (water was made opaque with non-toxic white paint). The platform (10 cm diameter) was submerged 1 cm below the water level. On the first day of the hidden-platform version, mice were habituated to the water and the platform for two 60 seconds trials. In each habituation trial, mice were allowed to swim for 30 seconds and then placed on the platform for another 30 seconds. During the acquisition phase, mice were placed four times a day into a pool with a submerged platform located in a fixed position (approximately 5 minutes inter-trial interval) for four days. […] On the fifth day, mice were given a 60 second probe trial, for which the platform was not in the pool. This was followed by four more days of training. A second probe trial was given on the tenth day. In the visible-platform version, mice were trained to find the platform using a proximal visible cue (red ball placed 10 cm above the platform). […] The path of the mouse was recorded using a video tracking system (ANY-Maze, Stoelting, Ireland).

[4] = test system: VEGFD; assay: qRT-PCR analysis of VEGFD expression in hippocampal neurons; format: cell-based, mice; details: hippocampal neurons infected with rAAV
Experimental: as §1, §2

## shVEGFD: shRNA targeting mouse VEGFD mRNA (GGGCTTCAGGAGCGAACAT; SEQ ID NO: 1), expressed from rAAV vector or plasmid with U6 promoter
[1]
  Expression of VEGFC: not affected
[2]
  basal exploratory activity and reaction to shock during training: not different between the two groups
  freezing during the 24-hour test session: significantly lower levels of freezing
[3]; hidden-platform acquisition, versus rAAV-shSCR
  Swimming speed: not different between the two groups
[3]; hidden-platform version, versus rAAV-shSCR
  time to find hidden platform (escape latency), effect of treatment: no effect of treatment was observed
[3]; probe trial, 60 sec
  time spent in quadrants during probe trial: spent similar amounts of time in the different quadrants
[4]
  VEGFD mRNA levels: reduced VEGFD mRNA levels
